# Measurements from patent US8354548B2, “Glycine chroman-6-sulfonamides for use as inhibitors of diacylglycerol lipase” (priority 2010, dated 2013).
# Like-named read-outs stand apart in the source and are kept apart here.
# Molecular target: T1, LG586 enzyme (Homo sapiens, UniProt Q9Y4D2)
# T1 sequence (Q9Y4D2 1-1042): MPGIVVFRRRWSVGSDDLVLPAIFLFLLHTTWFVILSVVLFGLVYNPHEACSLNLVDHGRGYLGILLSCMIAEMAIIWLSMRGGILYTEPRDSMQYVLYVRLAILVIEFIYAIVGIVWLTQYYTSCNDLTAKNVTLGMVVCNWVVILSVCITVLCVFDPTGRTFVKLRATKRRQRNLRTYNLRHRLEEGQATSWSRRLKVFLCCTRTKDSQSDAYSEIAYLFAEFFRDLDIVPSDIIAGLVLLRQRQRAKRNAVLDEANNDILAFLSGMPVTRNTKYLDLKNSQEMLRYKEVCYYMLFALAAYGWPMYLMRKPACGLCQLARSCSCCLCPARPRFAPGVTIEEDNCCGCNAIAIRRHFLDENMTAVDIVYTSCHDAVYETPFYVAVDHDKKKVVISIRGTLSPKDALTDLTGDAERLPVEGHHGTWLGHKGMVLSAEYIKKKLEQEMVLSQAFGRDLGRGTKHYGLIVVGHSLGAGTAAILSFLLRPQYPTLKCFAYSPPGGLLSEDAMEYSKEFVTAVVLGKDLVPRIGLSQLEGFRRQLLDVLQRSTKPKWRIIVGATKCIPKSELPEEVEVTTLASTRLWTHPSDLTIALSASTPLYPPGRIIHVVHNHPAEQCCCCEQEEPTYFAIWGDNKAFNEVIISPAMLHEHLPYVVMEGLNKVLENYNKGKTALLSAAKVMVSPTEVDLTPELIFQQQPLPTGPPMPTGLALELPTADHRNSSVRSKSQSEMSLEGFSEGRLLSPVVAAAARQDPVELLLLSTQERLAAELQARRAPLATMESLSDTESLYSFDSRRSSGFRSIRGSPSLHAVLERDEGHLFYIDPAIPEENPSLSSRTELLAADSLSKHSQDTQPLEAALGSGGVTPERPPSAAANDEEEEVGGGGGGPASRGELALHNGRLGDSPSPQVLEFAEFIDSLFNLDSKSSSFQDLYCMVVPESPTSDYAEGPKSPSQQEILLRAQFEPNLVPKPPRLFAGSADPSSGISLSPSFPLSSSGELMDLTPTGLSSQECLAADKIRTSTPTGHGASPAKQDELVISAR
# Assay type: biochemical
# Conditions: LG586 membrane prep, 250 μM PNP substrate, 10 min preincubation
# Experimental: Black non-binding surface Corning plates (3655) were spotted with 0.9 μL of compound in twenty point 1:3 dilutions. The same volume of dimethyl sulfoxide (DMSO) was added to column 23 of the plate.
# A membrane prep from a stable HEK cell line expressing LG586 was prepared by the Cell Resource Group at BMS in Hopewell, N.J. The protein concentration of the membrane prep was 1.28 μg/μL. […] For the assay, membrane was thawed to room temperature and then added to the assay buffer, 100 mM HEPES in MQ water at pH 7.5. The concentration of the LG586 enzyme in the assay is 0.005 μg/mL.
# The substrate used in this assay was purchased from Sigma (N9876) p-nitrophenyl butyrate (PNP). The substrate is received in the liquid form and must be diluted with DMSO. […] The final concentration of the substrate is 250 μM.
# Enzyme was added to the plates 80 μL/well using a Multi-drop Combi (Thermo). The plates were incubated with the compound for 10 minutes at room temperature. Then 9 μL of substrate was added to each well and the plates were immediately read on the Viewlux Imager (Perkin Elmer) in absorbance mode with the excitation filter of 405 nm and emission filter of 564/250 nm. The read was kinetic, plates were read once every 30 seconds for 5 minutes and then slopes were calculated for each well and the data was reduced with in-house software.
substance,measurement,setting,value
"2-(2,2-dimethyl-N-(4-(naphthalen-1-yl)benzyl)chroman-6-sulfonamido)acetic acid [Example 23]",IC50,read-out: Data Range*,2 to 100 nM
same,IC50,read-out: LE_LG586PNP_DR (IC50),3 nM
